Consider 108 molecules from a melting point compilation (Tetko et al.).

Molecules are shown by their SMILES.

Usually melting point stands for the temperature of the solid-liquid transition. Regarding `CCCCCCCCCCCCCCCCCCCC1CCCCC1`, the melting point is 45 °C.
With `NCc1cc(C(F)(F)F)ccc1N1CCOCC1`, the melting point was in the range of 31 to 34 °C.
In the case of `CCCCCCC(=O)OCCCC`, the melting point is -67.5 °C.
To `O=C(CC(=O)c1ccccc1)c1ccccc1` belongs 78 °C.
The molecule `Nc1ccc(S(=O)(=O)Nc2cnccn2)cc1` yielded a melting point of 251 °C.
`COc1ccc(-c2ocnc2C(=O)Cl)cc1` showed a melting point of 97 to 99 °C.
With `CC(C)NCC(O)c1ccc(NS(C)(=O)=O)cc1` (stereo not drawn), the melting point is 207 °C.
`Cc1ccc(Nc2ccc(Nc3ccc(C)cc3)c3c2C(=O)c2ccccc2C3=O)cc1` yielded a melting point of 218 °C.
Under `O=C1OC(OC2OC(=O)c3ccccc32)c2ccccc21` (stereo not drawn) stands 222 °C; under `Cn1c(=S)[nH]c2ccccc2c1=O`, 271 to 272 °C.
With `Cc1ccc(C(=O)O)cc1O`, the melting point stood at 210 °C.
To `CN1CCN(C)c2cc(C#N)ccc21` belongs 80 to 82 °C.
Molecule `N#CCC(=O)Nc1ccccc1` registered a melting point of 198 to 202 °C.
For the molecule `CC(=O)C1=C(C)C(C)(O)NC1=O` (stereo not drawn), the melting point is 172 to 174 °C.
In the case of `Nc1ccc2cc(S(=O)(=O)O)cc(S(=O)(=O)O)c2c1`, the melting point came out at 300 °C.
In turn, `COC(=O)c1ccc(I)c([N+](=O)[O-])c1` had a melting point of 102 °C.
To `CCOC(=O)CCC(C)C1CCC2C3C(=O)CC4CC(=O)CCC4(C)C3CC(=O)C12C` (stereo not drawn) belongs 222 °C.
To `CCOC1=NN(c2ccc([N+](=O)[O-])cc2)C(=O)C1` belongs 142 °C.
As for `Cc1ccc(Cl)cc1NC(N)=S`, the melting point was 160 to 161 °C.
Take `O=C(OCC1(COC(=O)c2cccnc2)CCCC(COC(=O)c2cccnc2)(COC(=O)c2cccnc2)C1O)c1cccnc1`: the melting point stood at 178 °C.
In the case of `NCC1OC(OC2C(N)CC(N)C(O)C2OC2OC(CO)C(O)C2O)C(N)C(O)C1O` (stereo not drawn), the melting point worked out at 194 °C.
`O=C1c2ccccc2C(=O)C1C(=O)C(c1ccccc1)c1ccccc1` gave a melting point of 146 °C.
Molecule `COC(=O)c1c(C=O)c(C)n(C)c1C` returned a melting point of 124 to 127 °C.
Molecule `O=C(O)c1ccc(O)c(F)c1F` returned a melting point of 207 °C.
`CSc1nc2ccccc2c(=O)[nH]1` yielded a melting point of 223 to 225 °C.
As to `O=C(Nc1cccnc1Cl)c1ccc(Cl)cc1Cl`, the melting point is 148 to 150 °C.
`CC(Cc1ccccc1)C(=O)O` (stereo not drawn) came in with a melting point of 37 to 37.5 °C.
To `COc1ccc([C@@H](O)[C@@H](CO)Oc2c(OC)cccc2OC)cc1OC` belongs 111 °C.
Regarding `Cc1ccccc1C(=O)Nc1cccc(OC(C)C)c1`, the melting point was 92.5 °C.
On to `BrCC12CC3CC(CC(C3)C1)C2`, for which the melting point was 30 to 32 °C.
In turn, `Cc1c(C)c(C)c2c(=O)n3ccccc3cc2c1C` had a melting point of 221 °C.
Consider `Cc1ccnc(C)n1`, for which the melting point was -4 °C.
Molecule `Clc1ncnc2sc(-c3ccccc3)cc12` gave a melting point of 139 to 140 °C.
`Cc1ccc2cccc-2cc1` yielded a melting point of 82 to 83 °C.
Molecule `Cc1ccc(C(C)(C)C)c(O)c1` yielded a melting point of 46.5 °C.
Molecule `COC(=O)c1ccc(OC)c(Br)c1` came in with a melting point of 97 °C.
To `Cc1cc(N=O)ccc1N=O` belongs 137 °C; to `CCc1cnc(C2=NC(C)(C(C)C)C(=O)N2)c(C(=O)O)c1` (stereo not drawn), 171 °C.
`CCC1C(C=NO)=NC(C)(C)N1O` (stereo not drawn) gave a melting point of 163 to 164 °C.
As for `COC(=O)CSc1cc(N=c2sc(=O)n3n2CCCC3)c(F)cc1Cl`, the melting point is 106 °C.
The molecule `CCOCCOC(=O)CCCCCCCCC(=O)OCCOCC` registered a melting point of -1 °C.
Molecule `O=Cc1cccc2ncccc12` gave a melting point of 96 °C.
As to `CCCNC(N)=O`, the melting point was in the range of 107 to 109 °C.
Turning to `C=CCN1C(=O)CSC1=S`, the melting point was 43 to 46 °C.
The molecule `Ic1cn(C(c2ccccc2)(c2ccccc2)c2ccccc2)cn1` registered a melting point of 224 to 225 °C.
The molecule `Nc1oc2ccc(Cl)cc2c(=O)c1C=O` displayed a melting point of 300 °C.
For the molecule `Cc1ccc(C2(C(=O)O)CCCCC2)cc1`, the melting point lay within 166 to 170 °C.
Molecule `CC(C)(C)C(=O)Oc1ccc([N+](=O)[O-])cc1` returned a melting point of 92 to 96 °C.
As for `O=Cc1ccc(-c2ccc(OC(F)(F)F)cc2)o1`, the melting point is 87 to 88 °C.
To `c1ccc(-c2nnc(-c3ccccn3)c(-c3ccccn3)n2)nc1` belongs 186 to 188 °C.
Under `O=C(C1=NOC2C(=O)N(c3cccc([N+](=O)[O-])c3)C(=O)C12)c1cccs1` (stereo not drawn) stands 164 °C; under `CC(OC1C(N)C(O)OC(CO)C1O)C(=O)O` (stereo not drawn), 148 °C.
Under `O=C(O)Cc1cc(O)ccc1O` stands 153 °C; under `CC(CCl)OC(C)CCl` (stereo not drawn), -97 °C; under `COc1cc(N=Nc2c(Br)cc([N+](=O)[O-])cc2[N+](=O)[O-])c(NC(C)=O)c(N(CCOC(C)=O)CCOC(C)=O)c1`, 132 °C.
As for `CCOC(=O)/C(C#N)=C/c1ccc(-c2ccc(Cl)cc2)o1`, the melting point turned out to be 140 °C.
In turn, `OCc1ccc2nonc2c1` registered a melting point of 66 to 67 °C.
Turning to `O=C(O)c1ccccc1Oc1ccccc1`, the melting point turned out to be 113 °C.
`Cc1cc(C)c2c(c1)CC2(C)O` (stereo not drawn) returned a melting point of 58 °C.
On to `CN(c1c(Br)cc(Br)cc1Br)c1c([N+](=O)[O-])cc([N+](=O)[O-])cc1C(F)(F)F`, for which the melting point came out at 150 °C.
To `CC(C)(C)OOC(C)(C)C` belongs -30 °C; to `C=C1CCC1`, -135 °C.
Under `COc1cc(/C=C/[N+](=O)[O-])c([N+](=O)[O-])cc1OC` stands 168 to 169 °C; under `COc1c(OC)c(=O)c1=O`, 55 to 57 °C; under `CCCOC(=O)CCC(=O)OCCC`, -5.9 °C.
`ON=C(c1ccc(F)cc1)c1ccc(F)cc1` had a melting point of 140 °C.
The molecule `CN1C(=O)N2CCc3ccccc3C2(c2ccc(Cl)cc2)C1=O` (stereo not drawn) showed a melting point of 121 to 122 °C.
Turning to `CC(=O)Oc1ccc(N)cc1`, the melting point is 74 °C.
Under `CC1(C)CC(=O)C=C(C(=O)O)O1` stands 167 to 171 °C; under `Cc1ccc2cc(N(C)C)ccc2n1`, 101 °C.
Take `CCN(CC)CCSC(=O)N(c1ccccc1)c1ccccc1`: the melting point stood at 48 °C.
In turn, `CC(=O)NCCS` returned a melting point of 6.5 °C.
Under `CC(CCCO)C1CCC2C3CCC4CCCCC4(C)C3CCC12C` (stereo not drawn) stands 130 °C; under `FC(F)(F)C(F)(F)C(F)(F)C(F)(F)C(F)(F)C(F)(F)C(F)(F)C(F)(F)C(F)(F)C(F)(F)I`, 66 °C.
For the molecule `Cc1ccc(NC(=O)CCC2C(=O)C3(C)CCC2C3(C)C)cc1` (stereo not drawn), the melting point was found to be 114 °C.
As to `O=Cc1ccc(O)c(Cl)c1`, the melting point stood at 139 °C.
Turning to `COc1ccccc1-c1nnc2n1NCS2`, the melting point is 123 °C.
In the case of `O=C(Nc1cccnc1Cl)c1cccc(C(F)(F)F)c1`, the melting point is 83 to 85 °C.
Molecule `CC(=O)Oc1nc(C2CCCCC2)nn1-c1ccccc1` had a melting point of 108 °C.
`COC1=C(OC)C(C(O)COS(=O)(=O)c2ccc(C)cc2)OC1=O` (stereo not drawn) yielded a melting point of 88 to 90 °C.
With `Cc1cc(C(N)=O)ccc1Br`, the melting point stood at 180 °C.
Under `O=S1(=O)OC(c2cc(Cl)c(O)c(Br)c2)(c2cc(Cl)c(O)c(Br)c2)c2ccccc21` stands 230 °C; under `O=C(Nc1cccc2ccccc12)C(C(F)(F)F)C(F)(F)F`, 224 °C; under `CC(=O)Nc1cc(C)ccc1O`, 151 to 153 °C.
To `CCOP(=S)(OCC)Oc1ccc2c3c(c(=O)oc2c1)CCCC3` belongs 88.2 °C; to `Clc1ncccc1-c1cccc(Br)n1`, 140 °C; to `O=CC(Cl)(Cl)Cl`, -57.5 °C.
In the case of `COc1ccc(C=Nn2c(C)cc(C)c(C#N)c2=O)cc1`, the melting point is 249 to 250 °C.
In turn, `COC(CN1CCN(CC(O)C(OC)c2ccccc2)CC1)c1ccccc1` (stereo not drawn) yielded a melting point of 83 °C.
As for `CCC(C(N)=O)n1nnc2ccccc21` (stereo not drawn), the melting point amounted to 143 °C.
`CCCCCCCCCC1(C)N=C(c2ccccc2)C=[N+]1[O-]` (stereo not drawn) registered a melting point of 43 to 46 °C.
For `C=C(Br)CC1(C(C)C)C(=O)NC(=O)NC1=O`, the melting point was 177 °C.
Turning to `COc1cc2cncc(Cc3ccccc3)c2cc1O`, the melting point was determined as 193 °C.
The molecule `Cn1nc(-c2ccc(S(=O)(=O)Cl)s2)cc1C(F)(F)F` came in with a melting point of 83 to 86 °C.
To `ClC1(c2ccccc2)Cc2ccccc21` (stereo not drawn) belongs 60 °C; to `Nc1cc(F)c(F)cc1C(=O)O`, 182 °C.
For `Cc1ccnc(SCC(=O)O)n1`, the melting point was 192 °C.
For `Fc1cccc(Cl)c1C(Cl)(Cl)Cl`, the melting point is 38 to 43 °C.
For the molecule `N#CCCNc1ccccc1`, the melting point turned out to be 52.5 °C.
In turn, `O=C1NC(=S)SC1=Cc1cccc(C=C2SC(=S)NC2=O)c1` had a melting point of 316 °C.
As for `C#CC1(OC(C)=O)CCC2C3CCC4=CC(=O)CCC4C3CCC21C` (stereo not drawn), the melting point turned out to be 162 °C.
The molecule `COc1c(OC)c2occc2c2oc(=O)ccc12` came in with a melting point of 119 °C.
Consider `CCNC=C(C(=O)OCC)C(=O)c1cnc(Cl)c(F)c1`, for which the melting point fell in the range of 122 to 124 °C.
Turning to `Cc1ccc(CCl)cc1[N+](=O)[O-]`, the melting point was in the range of 46 to 50 °C.
Molecule `O=c1c(O)c(-c2ccc(O)c(O)c2)oc2cc(O)cc(O)c12` displayed a melting point of 316 °C.
Molecule `CCS(=O)(=O)C(C)(C)S(=O)(=O)CC` yielded a melting point of 126 °C.
The molecule `BrCc1ccccc1I` registered a melting point of 56 °C.
As to `CNC(C)C1CCC(N)C(OC2C(N)CC(N)C(OC3OCC(C)(O)C(NC)C3O)C2O)O1` (stereo not drawn), the melting point is 105 °C.
